{
  "source": "paper PMC11056381",
  "about": "“Characterization and evaluation of cytotoxic and antimicrobial activities of cyclotides from Viola japonica” (Scientific Reports, 2024)",
  "key": {"[1]": {"test_system": "Acinetobacter baumannii (ATCC19606)", "assay": "microbe, parasite or virus in culture", "settings": "Acinetobacter baumannii ATCC19606; 10^6 CFU/ml, 96-well plate, overnight 37 °C, visual clarity; performed at least three times", "text": "(§1) Viba 11, originally discovered in Viola baoshanensis[39] and found in other plants such as Viola tricolor[40], Viola betonicifolia, and Viola philippica, lacks biological activity studies. […] All purified cyclotides underwent antibacterial testing against Gram-positive bacterium Staphylococcus aureus (CMCC(B)26003-2-10) and Bacillus subtilis (CMCC(B)63501), Gram-negative bacteria, including Acinetobacter baumannii (ATCC19606), Escherichia coli (CMCC(B)44102-2-6), and Salmonella paratyphi (CMCC(B)50094-2-9).\n(§2) Bacterial fluids are cultured overnight at 37 °C. The next day, the bacterial liquids are diluted to a concentration of 10^6 CFU/ml. Prepare different concentrations of cyclotide drugs and kanamycin sulfate in advance, and sequentially add the drugs and bacterial liquid to the 96-well plate. Negative controls consisted of sterile water and bacterial liquid. The plate is cultured overnight at 37 °C and observe whether the solution remains clear to see the growth of the bacterial suspension. Each test was performed three times at least."}, "[2]": {"test_system": "Bacillus subtilis (CMCC(B)63501)", "assay": "microbe, parasite or virus in culture", "settings": "10^6 CFU/ml, 96-well plate, overnight 37 °C, visual clarity, performed at least three times", "text": "as §1, §2"}, "[3]": {"test_system": "Escherichia coli (CMCC(B)44102-2-6)", "assay": "microbe, parasite or virus in culture", "settings": "10^6 CFU/ml, 96-well plate, overnight 37 °C, visual clarity, performed at least three times", "text": "as §1, §2"}, "[4]": {"test_system": "Salmonella paratyphi (CMCC(B)50094-2-9)", "assay": "MIC, broth dilution in 96-well plate", "format": "cell-based", "settings": "10^6 CFU/ml, overnight 37 °C, visual clarity, performed at least three times", "text": "(§3) Cycloviolacin O2, known for its antimicrobial, hemolytic, and insecticidal activities, has been more extensively investigated[4],[20],[36]–[38]. Viba 11, originally discovered in Viola baoshanensis[39] and found in other plants such as Viola tricolor[40], Viola betonicifolia, and Viola philippica, lacks biological activity studies. These two cyclotides and vija 10 are high in content and easy to purify, and cycloviolacin O2 can also be used as a positive control to conduct activity study. In addition, few vija12 and 31 were extracted for antibacterial experiments. All purified cyclotides underwent antibacterial testing against Gram-positive bacterium Staphylococcus aureus (CMCC(B)26003-2-10) and Bacillus subtilis (CMCC(B)63501), Gram-negative bacteria, including Acinetobacter baumannii (ATCC19606), Escherichia coli (CMCC(B)44102-2-6), and Salmonella paratyphi (CMCC(B)50094-2-9). […] In addition, the MICs of viba 11, cycloviolacin O2 and vija 10 against B. subtilis were respectively 5.4 μM, 2.1 μM and 14.3 μM (Table 1). […] Therefore, it is hypothesized that the lower antimicrobial activity of vija 10 may be attributed to the presence of only one Lys residue in loop 5.\nas §2"}, "[5]": {"test_system": "Staphylococcus aureus (CMCC(B)26003-2-10)", "assay": "MIC, broth dilution in 96-well plate", "format": "cell-based", "settings": "10^6 CFU/ml, overnight 37 °C, visual clarity, performed at least three times", "text": "as §3, §2"}, "Bacillus subtilis": {"test_system": "Bacillus subtilis", "assay": "Time killing kinetics", "format": "cell-based", "settings": "about 10^6 CFU/mL, LB, 37 °C, colony count", "protocol": "In this study, we investigated the time-kill kinetics characteristics of plant cyclotides against bacteria. […] It is worth noting that due to experimental constraints, there was a slight discrepancy of a few minutes between theoretical 0 h and actual 0 h. […] Furthermore, we also conducted time-kill kinetics studies using vija 10 against B. subtilis.\nFigure 4 (A) The Acinetobacter baumannii time killing kinetics of cycloviolacin O2 at concentration of 1 MIC, 2 MIC, 4 MIC and 8 MIC at 37 °C. (B) The Bacillus subtilis time killing kinetics of vija 10 at concentration of 1 MIC, 2 MIC, 4 MIC at 37 °C. Each test was performed three times at least.\nIncubate A. baumannii and B. subtilis in fresh nutrient LB broth at 37 °C until logarithmic growth stage, then dilute to approximately 10^6 CFU/mL, and incubate with cycloviolacin O2 at concentrations of 1 MIC, 2 MIC, 4 MIC, 8 MIC with A. baumannii and vija 10 at concentrations of 1 MIC, 2 MIC, 4 MIC with B. subtilis respectively. Taking the mixture at time points of 0 h, 0.5 h, 1 h, 1.5 h and 2 h, dilute and coat it to solid medium for 24 h. Count the number of colonies on solid culture medium. Each test was performed three times at least. Plotting a line graph with time on the x-axis and bacterial survival on the y-axis using GraphPad Prism 8. Statistical analysis of bacterial viability at different time points to determine the bactericidal and bacteriostatic effects of cyclotides."}},
  "note": "Residues, ends and D or L forms follow the SMILES beside them.",
  "data": [
    {"compound": "CC[C@H](C)[C@@H]1NC(=O)[C@@H]2CSSC[C@@H]3NC(=O)[C@H](C(C)C)NC(=O)[C@H](CCCCN)NC(=O)[C@H](CO)NC(=O)[C@H](CO)NC(=O)[C@@H]4CSSC[C@H](NC(=O)[C@H](CO)NC(=O)[C@H](CCC(=O)O)NC(=O)CNC(=O)[C@H](CSSC[C@H](NC(=O)CNC(=O)[C@H](CC(C)C)NC(=O)[C@H](CC(C)C)NC(=O)[C@H](C)NC(=O)[C@H](CO)NC1=O)C(=O)N[C@@H](CO)C(=O)N4)NC(=O)[C@@H]1CCCN1C(=O)[C@H]([C@@H](C)CC)NC(=O)[C@H](CO)NC(=O)CNC(=O)[C@H](CC(N)=O)NC(=O)[C@H](CCCCN)NC(=O)[C@H](Cc1ccc(O)cc1)NC3=O)C(=O)N[C@@H](C(C)C)C(=O)N[C@@H](Cc1ccccc1)C(=O)N[C@@H]([C@@H](C)CC)C(=O)N1CCC[C@H]1C(=O)N2", "note": "[vija 10] (HELM PEPTIDE1{A.L.L.G.C.S.C.S.S.K.V.C.Y.K.N.G.S.I.P.C.G.E.S.C.V.F.I.P.C.I.S}$PEPTIDE1,PEPTIDE1,5:R3-20:R3|PEPTIDE1,PEPTIDE1,7:R3-24:R3|PEPTIDE1,PEPTIDE1,12:R3-29:R3|PEPTIDE1,PEPTIDE1,1:R1-31:R2$$$V2.0)", "values": [
      {"measurement": "MIC", "setting": "[1]", "value": 57, "unit": "µM"},
      {"measurement": "MIC", "setting": "[2]", "value": 14.3, "unit": "µM"},
      {"measurement": "MIC", "setting": "[3]", "value": "> 28.5", "unit": "µM"},
      {"measurement": "MIC", "setting": "[4]", "value": "> 28.5", "unit": "µM"},
      {"measurement": "MIC", "setting": "[5]", "value": "> 28.5", "unit": "µM"},
      {"measurement": "time of treatment to complete eradication of B. subtilis", "setting": "Bacillus subtilis; 2 MIC", "value": 2, "unit": "h"},
      {"measurement": "time of treatment to effective killing of B. subtilis", "setting": "Bacillus subtilis; 4 MIC", "value": 1, "unit": "h"}
    ]}
  ]
}
